Results reported in US20240382483A1, “HETEROCYCLIC EGFR INHIBITORS FOR USE IN THE TREATMENT OF CANCER” (Blueprint Medicines Corporation, priority 2021, published 2024).
Where two headings read alike, the source gives them in different places.

How the values were obtained:
[1] = molecular target: T1, intracellular phosphorylation of EGFR in NCI-H1975 cell line that harbors the EGFR L858R T790M mutations (Homo sapiens, UniProt P00533, L858R/T790M); test: NCI-H1975 pEGFR AlphaLISA assay; assay type: cell-based; conditions: NCI-H1975 cells (EGFR L858R T790M), p-EGFR (Tyr1068), 4-5 hours incubation; read-out: Ext pEGFR H1975 GMean IC50 (nM) Protocol: @Pharmaron AlphaLISA (Num)
T1 construct: NCI-H1975 cell line that harbors the EGFR L858R T790M mutations (ATCC, CRL-5908); host or cells: NCI-H1975
Description: On the next day, the test compounds and DMSO control were added into H1975 cell plate followed by incubation at 37C/5% CO2 for 4-5 hours. […] Then 5 μL of a donor bead mix was added to each well followed by overnight incubation at room temperature in dark. On the next day, the plate was read at a compatible plate reader to obtain pEGFR signal. Percent of pEGFR inhibition was plotted against log concentration of compounds to generate IC50 values.

EGFR (L858R T790M C797S) = molecular target: T2, EGFR (L858R T790M C797S) (Homo sapiens, UniProt P00533, C797S/L858R/T790M); test: Biochemical EGFR inhibition assay (Caliper mobility shift), EGFR LRTMCS
T2 construct: purchased SignalChem E10-122VG
In short: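 Caliper mobility shift read-out: product and substrate peptides separated by electrophoresis and quantified. Reactions at 25° C. taken to 10–20% peptide phosphorylation, quenched with 35 mM EDTA. Apparent IC50 from percent activity vs log [compound].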

[2] = LRTMCS (PH) IC50 (nM) @ 1 mM ATP (Num), EGFR LRTMCS mutant

T2 sequence (P00533 25-1210 T790M/C797S/L858R): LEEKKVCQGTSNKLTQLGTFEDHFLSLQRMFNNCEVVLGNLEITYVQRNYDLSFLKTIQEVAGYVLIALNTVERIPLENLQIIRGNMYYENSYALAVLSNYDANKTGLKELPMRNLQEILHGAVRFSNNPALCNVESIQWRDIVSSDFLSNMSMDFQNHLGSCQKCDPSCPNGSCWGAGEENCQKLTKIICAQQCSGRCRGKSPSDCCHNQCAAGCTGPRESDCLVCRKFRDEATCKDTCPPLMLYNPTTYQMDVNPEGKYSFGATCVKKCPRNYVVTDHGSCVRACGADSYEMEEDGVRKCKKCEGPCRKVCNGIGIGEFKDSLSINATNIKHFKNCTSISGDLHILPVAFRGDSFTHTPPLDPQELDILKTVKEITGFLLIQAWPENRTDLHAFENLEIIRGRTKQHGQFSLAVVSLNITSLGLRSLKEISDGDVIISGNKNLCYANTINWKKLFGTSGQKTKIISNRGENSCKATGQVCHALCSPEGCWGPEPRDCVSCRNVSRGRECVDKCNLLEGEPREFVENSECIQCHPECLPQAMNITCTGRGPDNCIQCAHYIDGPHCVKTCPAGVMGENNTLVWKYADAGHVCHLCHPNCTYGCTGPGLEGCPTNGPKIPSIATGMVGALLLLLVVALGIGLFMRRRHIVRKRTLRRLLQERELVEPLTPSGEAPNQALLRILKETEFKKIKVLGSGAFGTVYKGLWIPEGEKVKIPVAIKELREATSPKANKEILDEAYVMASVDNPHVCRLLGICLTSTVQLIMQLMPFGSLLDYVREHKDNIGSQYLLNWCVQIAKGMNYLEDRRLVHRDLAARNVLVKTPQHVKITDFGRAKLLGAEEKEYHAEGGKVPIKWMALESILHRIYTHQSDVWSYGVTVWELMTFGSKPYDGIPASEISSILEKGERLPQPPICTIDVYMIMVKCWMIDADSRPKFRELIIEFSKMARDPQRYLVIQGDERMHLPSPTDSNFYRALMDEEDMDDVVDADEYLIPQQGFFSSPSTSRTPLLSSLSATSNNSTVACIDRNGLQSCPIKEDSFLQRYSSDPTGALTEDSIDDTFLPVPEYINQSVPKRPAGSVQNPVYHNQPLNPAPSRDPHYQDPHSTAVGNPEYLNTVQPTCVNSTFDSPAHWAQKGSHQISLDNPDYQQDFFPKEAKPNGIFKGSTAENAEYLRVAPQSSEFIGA
T1 sequence (P00533 25-1210 T790M/L858R): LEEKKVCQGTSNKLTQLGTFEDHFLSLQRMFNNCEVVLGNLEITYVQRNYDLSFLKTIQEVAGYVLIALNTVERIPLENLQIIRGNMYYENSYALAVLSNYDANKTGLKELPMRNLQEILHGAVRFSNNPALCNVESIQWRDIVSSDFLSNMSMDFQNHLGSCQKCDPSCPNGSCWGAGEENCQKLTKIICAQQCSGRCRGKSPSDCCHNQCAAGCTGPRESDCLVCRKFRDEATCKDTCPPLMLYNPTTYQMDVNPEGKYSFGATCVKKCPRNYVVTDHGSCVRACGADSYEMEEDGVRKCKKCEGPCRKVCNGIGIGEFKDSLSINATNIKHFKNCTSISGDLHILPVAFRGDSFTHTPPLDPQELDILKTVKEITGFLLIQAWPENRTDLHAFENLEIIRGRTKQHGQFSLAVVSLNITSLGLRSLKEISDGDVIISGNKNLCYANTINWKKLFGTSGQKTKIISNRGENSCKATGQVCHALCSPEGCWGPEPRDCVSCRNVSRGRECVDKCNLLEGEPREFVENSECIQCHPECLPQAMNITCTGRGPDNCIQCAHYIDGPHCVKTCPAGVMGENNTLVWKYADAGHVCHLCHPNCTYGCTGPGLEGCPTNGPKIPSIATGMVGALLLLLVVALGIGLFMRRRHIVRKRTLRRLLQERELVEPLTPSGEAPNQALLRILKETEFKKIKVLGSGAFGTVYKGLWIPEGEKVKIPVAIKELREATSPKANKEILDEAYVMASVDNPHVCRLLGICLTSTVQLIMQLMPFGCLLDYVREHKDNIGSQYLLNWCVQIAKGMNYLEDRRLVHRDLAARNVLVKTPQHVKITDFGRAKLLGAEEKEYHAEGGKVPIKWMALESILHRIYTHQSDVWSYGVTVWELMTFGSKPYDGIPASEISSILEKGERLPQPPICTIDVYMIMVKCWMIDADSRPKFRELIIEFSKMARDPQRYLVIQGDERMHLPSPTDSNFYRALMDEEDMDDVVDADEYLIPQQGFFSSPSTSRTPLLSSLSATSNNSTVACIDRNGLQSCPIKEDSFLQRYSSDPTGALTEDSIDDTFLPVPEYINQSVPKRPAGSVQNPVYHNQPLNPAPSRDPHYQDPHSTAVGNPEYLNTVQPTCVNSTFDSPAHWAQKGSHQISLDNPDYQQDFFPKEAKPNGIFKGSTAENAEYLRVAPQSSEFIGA

Row | IC50 [1] | IC50 (EGFR (L858R T790M C797S); [2]) | IC50 (EGFR (L858R T790M C797S); read-out: LRTMCS (PH) IC50 (nM) @ 1 mM ATP (Num), EGFR LRTMCS mutant) | Structure (SMILES)
1 | > 50 nM | 30 to 100 nM |  | CC(C)c1nnc(N2CC[C@H]2C(F)F)c2cnc(Nc3ccnc(N4CC[C@@H](O)[C@@](C)(F)C4)n3)cc12 (single isomer, unassigned) [Example 205, (3S,4R)-1-(4-((4-((S)-2-(difluoromethyl)azetidin-1-yl)-1-isopropylpyrido[3,4-d]pyridazin-7-yl)amino)pyrimidin-2-yl)-3-fluoro-3-methylpiperidin-4-ol or (3S,4R)-1-(4-((4-((R)-2-(difluoromethyl)azetidin-1-yl)-1-isopropylpyrido[3,4-d]pyridazin-7-yl)amino)pyrimidin-2-yl)-3-fluoro-3-methylpiperidin-4-ol]
2 | 20 to 30 nM | < 15 nM |  | CC(C)c1nnc(N2CC[C@@H]2C)c2cnc(Nc3ccnc(N4CC[C@@H](O)[C@@](C)(F)C4)n3)cc12 (single isomer, unassigned) [Example 206, (3S,4R)-3-fluoro-1-(4-((1-isopropyl-4-((S)-2-methylazetidin-1-yl)pyrido[3,4-d]pyridazin-7-yl)amino)pyrimidin-2-yl)-3-methylpiperidin-4-ol or (3S,4R)-3-fluoro-1-(4-((1-isopropyl-4-((S)-2-methylazetidin-1-yl)pyrido[3,4-d]pyridazin-7-yl)amino)pyrimidin-2-yl)-3-methylpiperidin-4-ol]
3 | 20 to 30 nM | < 15 nM |  | CC(C)c1cnc(N2CC[C@@H](CS(C)(=O)=O)C2)c2cnc(Nc3ccnc(N4CC[C@@H](O)[C@@](C)(F)C4)n3)cc12 (single isomer, unassigned) [Example 207, (3S,4R)-3-fluoro-1-(4-((5-isopropyl-8-((R)-3-((methylsulfonyl)methyl)pyrrolidin-1-yl)-2,7-naphthyridin-3-yl)amino)pyrimidin-2-yl)-3-methylpiperidin-4-ol or (3S,4R)-3-fluoro-1-(4-((5-isopropyl-8-((S)-3-((methylsulfonyl)methyl)pyrrolidin-1-yl)-2,7-naphthyridin-3-yl)amino)pyrimidin-2-yl)-3-methylpiperidin-4-ol]
4 | 10 to 20 nM |  | < 15 nM | CC(C)c1cnc(N2CC[C@@H](CS(C)(=O)=O)C2)c2cnc(Nc3ccnc(N4CC[C@@H](O)[C@@](C)(F)C4)n3)cc12 (single isomer, unassigned) [Example 208, (3S,4R)-3-fluoro-1-(4-((5-isopropyl-8-((R)-3-((methylsulfonyl)methyl)pyrrolidin-1-yl)-2,7-naphthyridin-3-yl)amino)pyrimidin-2-yl)-3-methylpiperidin-4-ol or (3S,4R)-3-fluoro-1-(4-((5-isopropyl-8-((S)-3-((methylsulfonyl)methyl)pyrrolidin-1-yl)-2,7-naphthyridin-3-yl)amino)pyrimidin-2-yl)-3-methylpiperidin-4-ol]
5 | > 50 nM | 15 to 20 nM |  | C[C@@H]1[C@H](F)CN1c1ncc([C@@H](C)CO)c2cc(Nc3ccnc(N4CC[C@@H](O)[C@@](C)(F)C4)n3)ncc12 (single isomer, unassigned) [Example 209, (3S,4R)-3-fluoro-1-(4-((8-((2R,3R)-3-fluoro-2-methylazetidin-1-yl)-5-((R)-1-hydroxypropan-2-yl)-2,7-naphthyridin-3-yl)amino)pyrimidin-2-yl)-3-methylpiperidin-4-ol or (3S,4R)-3-fluoro-1-(4-((8-((2R,3R)-3-fluoro-2-methylazetidin-1-yl)-5-((S)-1-hydroxypropan-2-yl)-2,7-naphthyridin-3-yl)amino)pyrimidin-2-yl)-3-methylpiperidin-4-ol]
